Like-named read-outs stand apart in the source and are kept apart here. Peptide text beside a SMILES is read from it.
Assays:
rat peritoneal cells = experiment: Ex vivo histamine release assay in rat peritoneal cells (vs. Compound 48/80); assay type: cell-based
Description: More desirable pharmacological tolerability can include a decrease in an undesirable side effect (e.g., histamine release, an indicator of mast cell degranulation) without a significant loss in activity of the compound.
Screening of the variant G protein receptor compounds against a control compound for histamine release can be done following standard assays. The standard assay can include comparison to a control compound known to elicit a histamine response (e.g., 48/80 having CAS No. 94724-12-6). Such an assay using rat peritoneal cells is described herein for the APJ compounds.
Test compounds were assayed in the ex vivo histamine release assay using a 3-point dose response. Concentrations of total histamine contained in the cells is used to correct for variability in the numbers of mast cells in the lavage per well.
Resident peritoneal cells were harvested from naïve Sprague Dawley rats (male 200-300 gr, Charles River). Rats were euthanized by CO2 asphyxiation and a skin incision was made along the middle-line of the abdomen. Thirty milliliters of HBSS (HyClone, cat#SH 30268.01) containing 20 mM HEPES and 0.2% BSA (heretofore Assay Buffer) were injected intraperitoneally using a 30 mL syringe with the attached 18 gauge needle. The abdomen was gently lavaged for 1-2 min and 7-10 milliliters of the peritoneal lavage were carefully aspirated. Cell count in the peritoneal lavage was determined using Cellometer Auto T4 (Nexcelom Bioscience). The peritoneal cell count was adjusted to […] cells/mL in Assay Buffer. Rat peritoneal cells were kept at room temperature before and during the assay.
For the 10-point assay, 3-fold serial dilutions were prepared for each test compound in 100% DMSO in 96-well plates (Greiner Bio One, Ref#651261)—from 100 μM down to […]. For the 3-point assay, 10-fold serial dilutions were prepared in 100% DMSO at 100 μM, 10 μM and 1 μM concentrations. From this plate, 5 μL of compound were transferred to a new plate containing 45 μL Assay Buffer to generate a compound plate with 10× final concentrations in 10% DMSO with Assay Buffer. In the final plates, column 11 contained 1% DMSO for the low-histamine-releasing control.
Suspensions of the rat peritoneal cells (90 μL of 2.75×10^5 cells/mL; →25,000 cells per well) were introduced into each well of a new 96-well microtiter plate (Greiner Bio One, Ref#651261) and 10 μL aliquots of the serially diluted compounds were transferred to the cells in each well. The microtiter plate was incubated for 30 min at room temperature. Following incubation cells were spun down (500 rpm, 7 min) and supernatants were collected for further analysis. Supernatants were diluted 6 times with the assay buffer (15 μL to 75 μL, for 90 μL total) and released histamine content was determined using HTRF® Histamine assay kit (CisBio, cat#62HTMPEB). To measure the total histamine in each well, cells were lysed by addition of 15 μL 5% TritonX-100 to each well followed by incubation for 15 minutes. The plates were then spun at 3000 rpm for 5 minutes, and 10 μL of supernatant were diluted 9-fold in assay buffer (10 μL to 80 μL for 90 μL total) to make the “total” histamine plate. Histamine content was measured as described above for the “released” histamine values.
The standard positive control was Compound 48/80 (Enzo Life Sciences), a oligomeric polymer mixture produced by the condensation of N-methyl-p-methoxyphenethylamine with formaldehyde. The trimer is the most abundant in the mixture Compound 48/80 is used to promote mast cell degranulation and activates G proteins by a mechanism analogous to that of mastoparan. […] See references: T. Higashijima et al., J. Biol., Chem., 265 14176 (1990); M. Mousli et al., FEBS Lett., 259 260 (1990); K. Gietzen et al., Biochim. Biophys. Acta, 736 109 (1983); K. Gietzen, Biochem. J., 1983 216 611 and C. Bronner et al., Biochim. Biophys. Acta, 920 301(1987).

[1] = biological target: T1, human APJ receptor (hAPJ) (Homo sapiens, UniProt P35414); experiment: HTRF cAMP assay: inhibition of NKH477-stimulated cAMP in HEK cells stably expressing hAPJ; assay type: cell-based; details: for Emax: HEK293, read-out: % IA, bound stated; for % IA (cAMP inhibition, hAPJ HEK): intrinsic activity; for Ranking: composite class of EC50 (hAPJ), % IA and % histamine or formal (+) charge; for inhibition of NKH477-stimulated increase in cAMP, dose dependent: concentration response curves, FIGS. 1 and 2, HEK cells stably expressing APJ
T1 construct: expressed in transfected cells
T1 sequence (P35414 1-380): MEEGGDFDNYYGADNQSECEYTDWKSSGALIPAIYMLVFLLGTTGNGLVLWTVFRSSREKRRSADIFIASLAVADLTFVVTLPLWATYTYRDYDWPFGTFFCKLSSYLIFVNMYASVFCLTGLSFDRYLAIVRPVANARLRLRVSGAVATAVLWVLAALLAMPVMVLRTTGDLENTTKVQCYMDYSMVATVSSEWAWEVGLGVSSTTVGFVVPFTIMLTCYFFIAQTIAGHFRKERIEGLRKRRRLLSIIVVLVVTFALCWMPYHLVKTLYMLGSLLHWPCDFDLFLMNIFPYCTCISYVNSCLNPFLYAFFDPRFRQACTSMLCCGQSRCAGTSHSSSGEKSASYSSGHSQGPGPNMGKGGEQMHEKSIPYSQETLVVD
Description: HTRF cAMP Assay and IP-One Assay (Cisbio)
HTRF (homogeneous time resolved fluorescence) is a technology developed by Cisbio Bioassays based on TR-FRET (time-resolved fluorescence resonance energy transfer). Cisbio Bioassays has developed a wide selection of HTRF-based assays compatible with whole cells, thereby enabling functional assays to run under more physiological conditions. The IP-One assays are competitive immunoassays using cryptate-labeled anti-IP1 monoclonal antibody and d2-labeled IP1. IP1 is a relatively stable downstream metabolite of IP3, and accumulates in cells following Gq receptor activation.
cAMP kits based on a competitive immunoassay using cryptate-labeled anti-cAMP antibody and d2-labeled cAMP were used to assay the effects of APJ compounds of the present invention. […] Cells are treated with 1 nG/mL doxycycline and seeded in all white 96 well plates @40 k/well overnight.

[2] = HTRF cAMP Assay, per data of Table 6
[3] = HTRF cAMP Assay, per data of Table 6, read-out: EC50 (hAPJ), inhibition of cAMP production, bound stated
[4] = Table 6, hAPJ HEK cells, NKH477-stimulated cAMP, read-out: EC50 (cAMP inhibition, hAPJ HEK)

Histamine (% vs. 48/80) (rat peritoneal cells) [%] | Emax [1, 2] [%] | EC50 [1, 3] [nM] | EC50 [1, 4] [nM] | % IA (cAMP inhibition, hAPJ HEK) ([1]; Table 6, hAPJ HEK cells) [%] | inhibition of NKH477-stimulated increase in cAMP, dose dependent [1] | Structure (SMILES) | Ranking [1] | Histamine (% vs. 48/80) (rat peritoneal cells; histamine release from rat peritoneal cells relative to Compound 48/80) [%] | EC50 ([1]; EC50 (cAMP inhibition, hAPJ HEK), Table 6, hAPJ HEK cells, NKH477-stimulated cAMP) [nM]
30 | ≥ 80 | ≤ 25 | 12 | 108 | inhibited | CCCCCCCCCCCCCCCC(=O)N[C@H](C(=O)N[C@H](C(=O)N[C@@H](Cc1ccccc1)C(=O)N[C@@H](CCC(N)=O)C(=O)N[C@@H](CO)C(=O)N[C@@H](CO)C(=O)N[C@@H](CCC(=O)O)C(=O)N[C@H](CCCCN)C(=O)N[C@@H](CCCNC(=N)N)C(=O)N[C@@H](CCCNC(=N)N)C(=O)N[C@@H](CO)C(=O)N[C@@H](C)C(=O)N[C@@H](CC(=O)O)C(=O)N[C@@H](Cc1ccccc1)C(=O)N[C@H](C(N)=O)[C@@H](C)CC)C(C)C)[C@@H](C)O [Compound 15, Pal-TVFQSSEkRRSADFI-amide] (HELM PEPTIDE1{[CCCCCCCCCCCCCCCC(=O)[*:2]].T.V.F.Q.S.S.E.[dK].R.R.S.A.D.F.I.[am]}$$$$V2.0) | ***** (EC50≦25 nM (hAPJ), % IA≧80% and either % histamine≦35% or formal (+) charge≦1) |  | 
54 | ≥ 80 | ≤ 25 | 13 | 88 | inhibited | CCCCCCCCCCCCCCCC(=O)N[C@H](C(=O)N[C@H](C(=O)N[C@@H](Cc1ccccc1)C(=O)N[C@@H](CCCNC(=N)N)C(=O)N[C@@H](CO)C(=O)N[C@@H](CO)C(=O)N[C@@H](CCC(=O)O)C(=O)N[C@H](CCCCN)C(=O)N[C@@H](CCCNC(=N)N)C(=O)N[C@@H](CCCNC(=N)N)C(=O)N1CCC[C@H]1C(=O)N[C@@H](CO)C(=O)N[C@@H](C)C(=O)N[C@@H](CC(=O)O)C(=O)N[C@H](C(=O)N[C@@H](Cc1ccccc1)C(=O)N1CCC[C@H]1C(N)=O)[C@@H](C)CC)C(C)C)[C@@H](C)O [Compound 24] (HELM PEPTIDE1{[CCCCCCCCCCCCCCCC(=O)[*:2]].T.V.F.R.S.S.E.[dK].R.R.P.S.A.D.I.F.P.[am]}$$$$V2.0) | **** (EC50≦25 nM (hAPJ), % IA≧80% and either % histamine>35% or formal (+) charge>1) |  | 
-1 |  |  | 9 | 48 |  | CCCCCCCCCCCCCCCC(=O)N1CCC[C@H]1C(=O)N[C@@H](CCC(=O)O)C(=O)N[C@H](CCCCN)C(=O)N[C@@H](CCCNC(=N)N)C(=O)N[C@@H](CCCNC(=N)N)C(=O)N[C@@H](CO)C(=O)N[C@@H](C)C(=O)N[C@@H](CC(=O)O)C(=O)N[C@H](C(=O)N[C@@H](Cc1ccccc1)C(=O)N1CCC[C@H]1C(N)=O)[C@@H](C)CC [Compound 4] (HELM PEPTIDE1{[CCCCCCCCCCCCCCCC(=O)[*:2]].P.E.[dK].R.R.S.A.D.I.F.P.[am]}$$$$V2.0) | * (EC50≦50 nM (hAPJ), % IA<50%) |  | 
1 | ≥ 80 | ≤ 25 | 24 | 111 | inhibited | CCCCCCCCCCCCCCCC(=O)N[C@@H](CC(=O)O)C(=O)N[C@H](C(=O)N[C@@H](Cc1ccccc1)C(=O)N[C@@H](CCC(N)=O)C(=O)N[C@@H](CO)C(=O)N[C@@H](CCC(=O)O)C(=O)N[C@H](CCCCN)C(=O)N[C@@H](CCCNC(=N)N)C(=O)N[C@@H](CCCNC(=N)N)C(=O)N[C@@H](CO)C(=O)N[C@@H](C)C(=O)N[C@@H](CC(=O)O)C(=O)N[C@@H](CCC(N)=O)C(=O)N[C@@H](Cc1ccccc1)C(=O)N[C@H](C(N)=O)[C@@H](C)CC)C(C)C [Compound 17] (HELM PEPTIDE1{[CCCCCCCCCCCCCCCC(=O)[*:2]].D.V.F.Q.S.E.[dK].R.R.S.A.D.Q.F.I.[am]}$$$$V2.0) | ***** (EC50≦25 nM (hAPJ), % IA≧80% and either % histamine≦35% or formal (+) charge≦1) |  | 
34 | ≥ 80 | ≤ 25 | 16 | 86 | inhibited | CCCCCCCCCCCCCCCC(=O)N1CCC[C@H]1C(=O)N[C@H](CCCCN)C(=O)N[C@@H](CCCNC(=N)N)C(=O)N[C@@H](CCCNC(=N)N)C(=O)N[C@@H](CO)C(=O)N[C@@H](C)C(=O)N[C@@H](CC(=O)O)C(=O)N[C@H](C(=O)N[C@@H](Cc1ccccc1)C(=O)N[C@H](C(=O)N1CCC[C@H]1C(N)=O)[C@@H](C)CC)[C@@H](C)CC [Compound 30] (HELM PEPTIDE1{[CCCCCCCCCCCCCCCC(=O)[*:2]].P.[dK].R.R.S.A.D.I.F.I.P.[am]}$$$$V2.0) | ***** (EC50≦25 nM (hAPJ), % IA≧80% and either % histamine≦35% or formal (+) charge≦1) |  | 

Structure (SMILES) | Histamine (% vs. 48/80) (rat peritoneal cells) [%] | Emax [1, 2] [%] | EC50 [1, 3] [nM] | EC50 [1, 4] [nM] | % IA (cAMP inhibition, hAPJ HEK) ([1]; Table 6, hAPJ HEK cells) [%] | inhibition of NKH477-stimulated increase in cAMP, dose dependent [1] | Ranking [1] | Histamine (% vs. 48/80) (rat peritoneal cells; histamine release from rat peritoneal cells relative to Compound 48/80) [%] | EC50 ([1]; EC50 (cAMP inhibition, hAPJ HEK), Table 6, hAPJ HEK cells, NKH477-stimulated cAMP) [nM]
CCCCCCCCCCCCCCCC(=O)N[C@H](C(=O)N[C@H](C(=O)N1CCC[C@H]1C(=O)N[C@@H](Cc1ccccc1)C(=O)N[C@@H](CCCNC(=N)N)C(=O)N[C@@H](CO)C(=O)N[C@@H](CO)C(=O)N[C@@H](CCC(=O)O)C(=O)N1CCC[C@H]1C(=O)N[C@H](CCCCN)C(=O)N[C@@H](CCCNC(=N)N)C(=O)N[C@@H](CCCNC(=N)N)C(=O)N[C@@H](CO)C(=O)N[C@@H](C)C(=O)N[C@@H](CC(=O)O)C(=O)N[C@H](C(=O)N[C@@H](Cc1ccccc1)C(=O)N[C@H](C(N)=O)[C@@H](C)CC)[C@@H](C)CC)C(C)C)[C@@H](C)O [Compound 1] (HELM PEPTIDE1{[CCCCCCCCCCCCCCCC(=O)[*:2]].T.V.P.F.R.S.S.E.P.[dK].R.R.S.A.D.I.F.I.[am]}$$$$V2.0) |  |  |  |  | 57 |  | ** (EC50 25-50 nM (hAPJ), % IA 50-79% and either % histamine>35% or formal (+) charge>1) | 53 | 4
